Like-named read-outs stand apart in the source and are kept apart here.
How the values were obtained:
PBMC from normal donors = conditions: MPN 10^-6 to 10^-9 M, 72 hours
Procedure: PBMC were then analyzed for GR-binding parameters or capacity to proliferate in the absence and presence of methylprednisone (MPN). […] After 72 hours of incubation, proliferation was measured by [^3 H]TdR incorporation (1 μCi/well, 6.7 Ci/mmol; ICN, Irvine, Calif.) during the last 6 hours of culture. Proliferation response was measured as the percent of control incorporation of [^3 ]TdR using the formula: [formula] GR-Binding Studies
PBMC from four normal donors were preincubated in the absence and presence of IL-2+IL-4, or IL-2 alone, for 48 hours and then subsequently stimulated with PMA (0.01 μM) and I (0.05 μM) in the presence and absence of MPN ranging in concentration from 10^-6 to 10^-9 M for another 72 hours. […] Each point represents the mean±SEM.

[1] = 7-10 day course of high dose oral Prednisone in poorly controlled asthmatics; assay type: in vivo, human; conditions: Post-Pn
Procedure: 10 poorly controlled asthmatics received a 7-10 day course of high dose oral Prednisone (20-30 mg po bid). Following prednisone treatment, PBMC's were obtained as generally described in Experiment 1 and the whole cell GR number (sites/cell) and binding affinity (Kd, nmol/l) were determined using techniques generally described in Experiment 1. In addition, spirometry and serum ECP levels were measured pre- and post-Prednisone treatment. […]

[2] = FEV1 response of SS and SR asthma patients to a 1 week course of oral prednisone; assay type: in vivo, human
Text: Patients with a diagnosis of asthma, based on American Thoracic Society criteria, were selected for evaluation. […]. Patients were excluded if they had evidence for other types of lung disease, pregnancy, suspected noncompliance with medical care, or concurrent therapy with medications that alter glucocorticoid metabolism, such as anti-convulsants or erythromycin. A complete set of pulmonary function tests with lung volume, methacholine bronchial challenge, and diffusion capacity/total lung capacity ratio were obtained if the diagnosis of asthma required confirmation.
Patients were classified as SS or SR based on their prebronchodilator morning FEV1 and their response to a course of oral prednisone. […] All SR asthma patients had glucocorticoid pharmacokinetic studies to exclude those patients with an abnormality in prednisone absorption or metabolism.

Which results are given for methylprednisone [MPN]?
effect of MPN on PMA/I-induced proliferation (PBMC from normal donors; PBMC preincubated 48 hours in culture medium alone): significant dose-dependent inhibition of proliferation; effect of MPN on PMA/I-induced proliferation (PBMC from normal donors; PBMC preincubated 48 hours with IL-2+IL-4, compared with medium alone): significantly decreased inhibitory effect

With `C[C@]12C=CC(=O)C=C1CC[C@@H]1[C@@H]2C(=O)C[C@@]2(C)[C@H]1CC[C@]2(O)C(=O)CO` [Prednisone] as the compound, how does the “GR Number” value ([1]; PBMC, 10 poorly controlled asthmatics, Pre-Pn 8029 ± 1875, p 0.024) read?
Its value is 3575 ± 1094 sites/cell.

And the ECP ([1]; serum, Pre-Pn 16.1 ± 1.9, p 0.045)?
The ECP was 10.8 ± 1.2 µg/L.

And the “FEV1 /FVC Ratio” value ([1]; Pre-Pn 0.60 ± 0.02, p 0.014)?
The value was 0.70 ± 0.01.

What about the FEV1 ([1]; Pre-Pn 63.8 ± 3.2%, p 0.008) of the same compound?
Its FEV1 is 82.6 ± 4.4 % predicted.

And the “FEV1 after steroid burst” value ([2]; SR asthma patients (n 17), FEV1 before BD 58 % predicted)?
Its value is 57.

What about the “FEV1 after steroid burst” value ([2]; SS asthma patients (n 12), FEV1 before BD 47 % predicted) of the same compound?
Its value is 82.

From US5567590A, “Methods of diagnosing steroid-resistant inflammation due to type I or type II nuclear glucocorticoid receptor binding abnormalities” (National Jewish Center for Immunology and Respiratory, priority 1994, dated 1996)
